# Patent US20240366655A1, “COMBINATION DRUG THERAPIES” (CYBIN IRL LIMITED, priority 2021, published 2024)
# Like-named read-outs stand apart in the source and are kept apart here.
# Columns and labels:
# [1] = Brain pharmacokinetics and brain to plasma ratio after IV co-administration of DMT and DMT-d10 to male rats (Group 4); assay type: in vivo, Sprague Dawley rats; details: for Cmax / Tmax / half-life / Kp: Sprague Dawley, rat; for Cmax / Tmax / AUC0-inf / AUC(0-t) / half-life: brain; for Cmax / Tmax / AUC0-inf / AUC(0-t): Group 4 IV bolus 1 mg/kg, male rats; for Distribution into brain: after IV co-administration; for half-life / Kp: male, 1 mg/kg; for half-life: Group 4 IV, calculated 0.25 to 1 hr; for Kp: brain / plasma, intravenous, read-out: B/P (AUC0-1), brain to plasma ratio
# Procedure: The pharmacokinetics and bioavailability of N,N-dimethyltryptamine (DMT) and 2-(1H-indol-3-yl)-N,N-bis(methyl-d3)ethan-1-amine-1,1,2,2-d4 (DMT-d10) were investigated in rats following intravenous (bolus), oral gavage (OG), and inhalation after co-dose administration.
# Sampling collection. PK samples (0.3 mL) were collected from the jugular vein by venepuncture into tubes containing K2EDTA anticoagulant at the following sampling times: Group 1 (IV) and Group 2 (oral) serial plasma collection at 0.083, 0.25, 0.5, 1, 3, 8 and 24 hr postdose; Group 4 (IV) composite plasma and brain collection at 0.083, 0.25, 0.5 and […]; Group 6 (inhalation) serial plasma collection at 0.333, 0.533, 0.833, 1.333, 3.333, 8.333 and 24.333 after start of inhalation.
# Brain samples: After extraction of whole brain from the cranium, brains were rinsed, patted dry, weighed, placed into tubes and frozen on dry ice. Thereafter, they were stored at −70 (10°) C pending analysis.
# Bioanalysis. Plasma and brain homogenates were analyzed for DMT and DMT-d10 using an established LC-MS/MS assay.) Pharmacokinetic parameters were determined from the DMT and DMT-d10 plasma and brain concentration-time profiles using commercially available software (Phoenix® WinNonlin®).
# [2] = Experiment 6: blood neurotrophic and endocrine biomarkers after DMT+N2O in healthy human participants; details: DMT 0.1, 0.2, 0.4 mg/kg
# Excerpt: General experimental design. The proposed studies aim to define proof-of-concept synergistic interactions of inhalational DMT fumarate with N2O, or IV DMT fumarate administered as a bolus over 30 seconds. Healthy adult participants will be exposed to either inhalational DMT in 20-25% N2O in oxygen as the carrier gas, or inhalational DMT in oxygen alone as the carrier gas in a blinded manner, or IV DMT while inhaling 20-25% N2O in oxygen, or oxygen.
# Pre-study: Baseline measurements of heart rate, body temperature and blood pressure will be made. An IV cannula will be inserted into a forearm vein for blood sampling and to allow administration of DMT as a bolus in the IV condition. Participants will be allowed to relax for 30 min before the drug session. Study session: Participants will receive administration of either 20-25% N2O in oxygen, or oxygen alone, for 10 minutes prior to the administration of a high, medium or low dose of inhalational or IV DMT (0.4, 0.2, 0.1 mg/kg) over the course of 30 sec-1 minute. […]
# Baseline blood samples will be drawn 30 minutes before N2O or oxygen administration, and after 8 mins of N2O or oxygen administration for endocrine markers of HPA axis activation: corticotropin, β-endorphin, prolactin, GH and cortisol levels. Further blood samples will be drawn, and vital signs measured 2, 15, 60 and 120 minutes after DMT administration. […]
# [3] = rats, following intraperitoneal injection; cited from earlier work
# [4] = Plasma pharmacokinetics of co-administered DMT and DMT-d10 by intravenous (bolus), oral gavage and inhalation administration to male rats; details: for time of peak plasma concentration postdose: after oral administration; for mean residence time (MRT) after inhalation compared to IV administration: inhalation vs IV; for F: calculated from dose normalized AUC0-1 mean values vs Group 4 IV; for bioavailability / Tmax / half-life / AUC(0-t) / AUC0-inf / Cmax / MRT last / AUC0-1/dose / t1/2: plasma
# [5] = cited from earlier work
# [6] = molecular target: T1, serotonin 5-HT2A receptor (Mus musculus, UniProt P35363); details: 1 mg/kg dose, intraperitoneal, rats and mice; cited from earlier work
# T1 construct: endogenous in cells; host or cells: living mice (in vivo behavioural assay); receptor endogenous to the animal
# [7] = inhalation, DMT 15.3 mg/kg, DMT-d10 14.7 mg/kg
# [8] = male, Sprague Dawley, rat, inhaled
# [9] = male, Sprague Dawley, rat, inhaled or intranasal
# [10] = male, Sprague Dawley, rat, inhaled or intranasal, AUC0-1, plasma, Group 6 inhalation, DMT 15.3 mg/kg, DMT-d10 14.7 mg/kg
# [11] = male, Sprague Dawley, rat, inhaled or intranasal, AUC0-1, plasma, inhalation, DMT 15.3 mg/kg, DMT-d10 14.7 mg/kg (summary table)
# [12] = male, Sprague Dawley, rat, inhaled or intranasal, AUC0-t, Group 6 inhalation, DMT 15.3 mg/kg, DMT-d10 14.7 mg/kg
# [13] = male, Sprague Dawley, rat, iv, 1 mg/kg
# [14] = male, Sprague Dawley, rat, iv, 1 mg/kg, AUC0-1, plasma, 1 mg/kg (summary table)
# [15] = male, Sprague Dawley, rat, iv, 1 mg/kg, AUC0-1, plasma, Group 4 IV bolus, 1 mg/kg, male rats
# [16] = male, Sprague Dawley, rat, iv, 1 mg/kg, AUC0-t, Group 4 IV bolus, 1 mg/kg, male rats
# [17] = male, Sprague Dawley, rat, po, 10 mg/kg
# [18] = male, Sprague Dawley, rat, po, 10 mg/kg, AUC0-1, plasma, 10 mg/kg (summary table)
# [19] = male, Sprague Dawley, rat, po, 10 mg/kg, AUC0-1, plasma, Group 2 oral gavage (OG), 10 mg/kg, male rats
# [20] = male, Sprague Dawley, rat, po, 10 mg/kg, AUC0-t, Group 2 oral gavage (OG), 10 mg/kg, male rats
# [21] = inhalation, calculated 0.333 to 3.333 hr (summary table)
# [22] = intravenous 1 mg/kg, calculated 0.083 to 1.0 hr (summary table)
# [23] = human, IV bolus of DMT (as fumarate salt), 0.05-0.4 mg/kg
# T1 sequence (P35363 whole entry): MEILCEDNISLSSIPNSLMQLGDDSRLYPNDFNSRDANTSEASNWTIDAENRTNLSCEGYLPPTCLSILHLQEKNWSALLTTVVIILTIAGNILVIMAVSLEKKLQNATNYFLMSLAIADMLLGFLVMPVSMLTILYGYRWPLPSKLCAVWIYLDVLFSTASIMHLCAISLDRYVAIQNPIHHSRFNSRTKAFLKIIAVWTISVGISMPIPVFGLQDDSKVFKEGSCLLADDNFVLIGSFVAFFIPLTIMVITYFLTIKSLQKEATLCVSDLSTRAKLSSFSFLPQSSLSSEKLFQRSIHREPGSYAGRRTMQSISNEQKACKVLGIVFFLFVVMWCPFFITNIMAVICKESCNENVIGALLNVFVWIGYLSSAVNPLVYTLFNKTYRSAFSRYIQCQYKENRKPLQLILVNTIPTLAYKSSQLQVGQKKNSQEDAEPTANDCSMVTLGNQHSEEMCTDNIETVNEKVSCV
smiles,measurement,setting,value
"CN(C)CCc1c[nH]c2ccccc12 [DMT, N,N-dimethyltryptamine]",Cmax,[1],3430 ng/g
same,Tmax,[1],5 min
same,Distribution into brain,[1],high
same,AUC0-inf,[1],1070 ng·h/g
same,AUC(0-t),[1],1060 ng·h/g
same,half-life,[1],9.3 min
same,Kp,[1],9
same,levels of VEGF and BDNF in blood,[2],dose-dependently increased levels
same,half-life,[3],5 to 15 min
same,"time to be metabolized and cleared from brain, liver, and plasma",[3],≤ 1 h
same,time of highest plasma concentration (first time point taken),[4]; after IV bolus,0.083 h
same,time of highest plasma concentration (first time point taken),[4]; after inhalation,0.333 h
same,time of peak plasma concentration postdose,[4],1 h
same,mean residence time (MRT) after inhalation compared to IV administration,[4],approximately 2 ×
same,F,[4]; [7],15.3%
same,bioavailability,[4]; [8],15.3%
same,Tmax,[4]; [9],20 min
same,half-life,[4]; [9],19.7 min
same,AUC(0-t),[4]; [10],265 ng·h/mL
same,AUC(0-t),[4]; [11],265 ng·h/mL
same,AUC(0-t),[4]; [12],300 ng·h/mL
same,AUC0-inf,[4]; [13],115 ng·h/mL
same,Cmax,[4]; [13],314 ng/mL
same,MRT last,[4]; [13],13.6 min
same,half-life,[4]; [13],10.1 min
same,AUC(0-t),[4]; [14],113 ng·h/mL
same,AUC(0-t),[4]; [15],113 ng·h/mL
same,AUC(0-t),[4]; [16],113 ng·h/mL
same,Cmax,[4]; [17],28 ng/mL
same,MRT last,[4]; [17],172 min
same,Tmax,[4]; [17],60 min
same,bioavailability,[4]; [17],1.2%
same,AUC(0-t),[4]; [18],13.7 ng·h/mL
same,AUC(0-t),[4]; [19],13.7 ng·h/mL
same,AUC(0-t),[4]; [20],65 ng·h/mL
same,F,[4]; oral gavage 10 mg/kg,1.2%
same,AUC0-1/dose,[4]; [7],17.3
same,t1/2,[4]; [21],19.7 min
same,t1/2,[4]; [22],10.1 min
same,AUC0-1/dose,"[4]; intravenous, 1 mg/kg",113
same,AUC0-1/dose,"[4]; oral, 10 mg/kg",1.37
same,half-life,[5]; administered intravenously,around 15 minutes
same,time to peak plasma concentrations,[5]; administered intravenously,approximately 2 minutes
same,subjective effects,"[5]; human, 0.1 mg/kg IV",not hallucinogenic
same,subjective effects,"[5]; human, 0.2 and 0.4 mg/kg IV","nearly instantaneous onset of visual hallucinatory phenomena, bodily dissociation, and extreme shifts in mood"
same,peak of psycho-biological effects after administration,[5]; [23],120 seconds
same,time by which psycho-biological effects resolve,[5]; [23],≤ 30 minutes
same,duration of effect,[5]; vaporized DMT,less than 30 min
same,hallucinogenic effect as measured by head-twitch responses (HTRs),[6],sub-hallucinogenic
"[2H]C([2H])([2H])N(C([2H])([2H])[2H])C([2H])([2H])C([2H])([2H])c1c[nH]c2ccccc12 [DMT-d10, 2-(1H-indol-3-yl)-N,N-bis(methyl-d3)ethan-1-amine-1,1,2,2-d4]",improvement of brain to plasma (B/P) ratio by deuteration,"[1]; DMT-d10 vs. DMT, IV",approximately 50%
same,Cmax,[1],1490 ng/g
same,Tmax,[1],5 min
same,Distribution into brain,[1],high
same,AUC0-inf,[1],1290 ng·h/g
same,AUC(0-t),[1],931 ng·h/g
same,half-life,[1],33.9 min
same,Kp,[1],14
same,increase of inhalation bioavailability by deuteration,[4]; DMT-d10 vs. DMT,approximately 60%
same,time of highest plasma concentration (first time point taken),[4]; after IV bolus,0.083 h
same,time of highest plasma concentration (first time point taken),[4]; after inhalation,0.333 h
same,time of peak plasma concentration postdose,[4],1 h
same,mean residence time (MRT) after inhalation compared to IV administration,[4],approximately 2 ×
same,F,[4]; [7],24.3%
same,bioavailability,[4]; [8],24.3%
same,Tmax,[4]; [9],20 min
same,half-life,[4]; [9],23.7 min
same,AUC(0-t),[4]; [10],267 ng·h/mL
same,AUC(0-t),[4]; [11],267 ng·h/mL
same,AUC(0-t),[4]; [12],361 ng·h/mL
same,AUC0-inf,[4]; [13],92.6 ng·h/mL
same,Cmax,[4]; [13],148 ng/mL
same,MRT last,[4]; [13],20.9 min
same,half-life,[4]; [13],26.5 min
same,AUC(0-t),[4]; [14],74.6 ng·h/mL
same,AUC(0-t),[4]; [15],74.6 ng·h/mL
same,AUC(0-t),[4]; [16],74.6 ng·h/mL
same,Cmax,[4]; [17],20.8 ng/mL
same,MRT last,[4]; [17],221 min
same,Tmax,[4]; [17],60 min
same,bioavailability,[4]; [17],1.2%
same,AUC(0-t),[4]; [18],8.78 ng·h/mL
same,AUC(0-t),[4]; [19],8.78 ng·h/mL
same,AUC(0-t),[4]; [20],77.2 ng·h/mL
same,F,[4]; oral gavage 10 mg/kg,1.2%
same,Cmax,"[4]; Group 4 IV bolus, 1 mg/kg, male rats",148 ng/mL
same,AUC0-1/dose,[4]; [7],18.2
same,t1/2,[4]; [21],23.7 min
same,t1/2,[4]; [22],26.5 min
same,AUC0-1/dose,"[4]; intravenous, 1 mg/kg",74.6
same,AUC0-1/dose,"[4]; oral, 10 mg/kg",0.878
